According to patent US4624952A, “Pyridazine and pyrimidine compounds active on the central nervous system as sedatives or anticonvulsants” (Sanofi, priority 1983, dated 1986):
Read-outs that look alike come from different tables or passages of the source.

Assays:
[1] = Lethal dose in the mouse after acute administration; conditions: in vivo; for mortality at 72 h: po, read-out: % of toxicity (animals which die)
Method: The products were administered by the oral route to batches of 5 female Charles River CDl mice, weighing between 20 and 24 g. They were solubilized in 0.1N HCl.
Toxicity was noted during the 72 hours following administration of the products. The LD50 was calculated for two products.
The results expressed in percentage of animals which die in the […] consecutive to the oral administration of the products are noted in the preceding Table.

[2] = tested on: spontaneous motility of female Charles River CDl mice; experiment: Effect of the products on the spontaneous motility (actimeter test); type: in vivo; conditions: Mus musculus, po, 0.75 h, 45 min after administration, recorded 10 min, vs controls, * p 0,05, ** p 0,01 (Student test), read-out: Locomotor activity Score (p.cent/controls); for change in vivo at 250 mg/kg: 250 mg/kg p.o.; for change in vivo at 100 mg/kg: 100 mg/kg p.o.
Method: (§1) The sedative effect is translated by the reduction of the spontaneous motility of the animals. This was measured by the actimeter test developed by BOISSIER and SIMON (1965). The equipment was composed of actimetric cages, of the Apelab type (26×21.5×10 cm), through which pass two light rays which act on a photoelectric cell. The batches were constituted by 12 female Charles River CDl mice weighing between 20 and 24 g. The animals were placed individually in the cages 45 minutes after the oral administration of the products at the dose of 250 mg/kg or at the dose of 100 mg/kg. Each passage through a light beam was counted by an individual meter. The scores corresponding to the movements of the animals were recorded for 10 minutes and compared with the scores made by the batches of control animals, treated solely by the vehicle (0.1N HCl).

[3] = tested on: convulsions induced by an electric shock in Charles River CDl mice; experiment: Antagonism of the convulsions induced by an electric shock; type: in vivo; conditions: 1 h; mouse; oral, 60 min before electric shock (12.5 volts, 0.3 seconds); read-out: Median effective dose (ED50) Antagonism of the electric shock
Method: (§2) The anti-epileptic effect of the products in the mouse was assessed on a model of convulsions provoked by an electric shock, and on a model of convulsions induced by a chemical agent: bicuculline.
The test was slightly modified from that of SWINYARD et al (1952) and ASAMI et al (1974). The equipment was composed of a Racia shock generator provided with two ocular electrodes delivering a current of 12.5 volts for 0.3 seconds. The batches were constituted by 10 Charles River CDl mice, weighing between 20 and 24 g. The products were administered by the oral route, 60 minutes before the electric shock. The animals presenting no tonic extension of the rear limbs were considered as being protected from the convulsive crisis.

[4] = tested on: convulsions provoked by bicuculline in Charles River CDl mice; experiment: Antagonism of the convulsions provoked by bicuculline; type: in vivo; conditions: mouse; oral, 60 min before bicuculline 0.8 mg/kg i.v.; read-out: Median effective dose (ED50) Antagonism of Bicuculline
Method: as §2
The batches were constituted by 10 Charles River CDl mice, weighing between 20 and 22 g. The products were administered by the oral route, 60 minutes before the bicuculline (0.8 mg/kg, i.v.). The appearance of tonic convulsions was noted during the 60 minutes following the injection of the bicuculline.

[5] = tested on: turnaround reflex of mice; experiment: Loss of turnaround reflex (sleep-inducing effect); type: in vivo, mouse; conditions: 100 mg/kg, oral
Method: as §1
On the other hand, at the dose of 100 mg/kg, the CM 41378 provokes a loss of turnaround reflex characteristic of a sleep-inducing effect in 50% of the animals treated.

[6] = tested on: loss of the turn-around reflex in Charles River CDl mice; experiment: Potentialization of narcosis by pentobarbital; type: in vivo; conditions: po; mouse; product 60 min before pentobarbital 20 mg/kg i.p.
Method: With a view to assessing the hypnogenic power of the products, we have studied their capacity to potentialize the effects of a subnarcotic dose of pentobarbital in the mouse. The batches were constituted by 10 Charles River CDl mice, weighing between 20 and 24 g. The pentobarbital (20 mg/kg, i.p.) was administered 60 minutes after administration of the products. The criterion of sleep-induction retained was the loss of the turn-around reflex.

SMILES | mortality at 72 h ([1]; 250 mg/kg p.o.) [%] | mortality at 72 h ([1]; 500 mg/kg p.o.) [%] | mortality at 72 h ([1]; 1000 mg/kg p.o.) [%] | change in vivo at 250 mg/kg [2] [%] | ED50 [3] [mg/kg] | ED50 [4] [mg/kg] | change in vivo at 100 mg/kg [2] [%] | loss of turnaround reflex characteristic of a sleep-inducing effect, animals treated [5] [%] | ED50 [6] [mg/kg] | LD50 at 72 h ([1]; oral, calculated, read-out: LD50 (DL50)) [mg/kg]
Oc1ccccc1-c1ccc(N2CCC(O)CC2)nn1 [SR 41559] | 0 | 0 | 0 | -66 |  |  |  |  |  | 
CCCC(=O)OC1CCN(c2ccc(-c3ccccc3Cl)nn2)CC1 [SR 41172, 3-(4-butyroyloxypiperidino)-6-(2-chlorophenyl)-pyridazine] | 0 | 0 | 100 |  | 28 | 39 | -32 |  |  | 
OC1CCN(c2ccc(-c3cccc(Cl)c3)nn2)CC1 [SR 41188] | 0 | 0 | 60 |  | 45 |  | -77 |  |  | 
OC1CCN(c2ccc(-c3cccc4ccccc34)nn2)CC1 [SR 42399] | 0 | 0 |  |  | 38 |  |  |  |  | 
OC1CCN(c2ccc(-c3cccc(C(F)(F)F)c3)nn2)CC1 [CM 40857] |  |  |  |  | 63 |  | -87 |  |  | 
OC1CCN(c2ccc(-c3ccccc3F)nn2)CC1 [SR 41558] | 0 | 0 | 80 | -93 | 115 | 30 |  |  |  | 
Clc1ccccc1-c1ccc(N2CCC3(CC2)OCCO3)nn1 [SR 42487, 3-[1,4-dioxa-8-aza-spiro[4,5]decane-8-yl]-6-(2-chloro-phenyl)pyridazine] | 0 | 0 | 0 |  | 57 |  | -42 |  |  | 
OC1CCN(c2ccc(-c3ccc(Cl)cc3Cl)nn2)CC1 [SR 41378, 3-(4-hydroxy-piperidino)-6-(2,4-dichloro-phenyl)pyridazine] |  |  |  |  | 30 | 5.7 |  | 50 | 21 | 423
O=C1CCN(c2ccc(-c3ccccc3Cl)nn2)CC1 [SR 42488, 3-(4-oxo-iperidino)-6-(2-chlorophenyl)pyridazine] | 0 | 0 | 0 |  | 40 | 35 |  |  | 67 | 
OC1CCN(c2ccc(-c3ccc(Cl)cc3)nn2)CC1 [CM 41127] | 0 | 0 |  |  | 28 | 98 | -68 |  |  | 
OCC1CCN(c2ccc(-c3ccccc3Cl)nn2)C1 (centres unmarked) [SR 41259] |  |  |  |  |  |  | -19 |  |  | 
O=[N+]([O-])c1ccccc1-c1ccc(N2CCC(O)CC2)nn1 [SR 41673, 3-(4-hydroxy-piperidino)-6-(2-nitrophenyl)-pyridazine] | 0 | 0 | 20 | -61 | 27 | 81 |  |  |  | 
OC1CCN(c2ccc(-c3ccccc3Cl)nn2)C1 (centres unmarked) [SR 41254] | 0 | 0 | 20 |  |  |  | -34 |  |  | 
OCCC1CCN(c2ccc(-c3ccccc3Cl)nn2)CC1 [SR 41261] |  |  |  |  |  |  | -27 |  |  | 
